# According to patent publication US20180327367A1, “MACROCYCLIC BROAD SPECTRUM ANTIBIOTICS” (priority 2015, published 2018):
# pIC50: −log10 of the molar value. Read-outs that look alike come from different tables or passages of the source.
# Experiments:
# [1] = test system: Escherichia coli ATCC 25922; assay: Minimum inhibitory concentration, broth micro-dilution (CLSI), E. coli; assay type: cell-based; details: Escherichia coli, ATCC25922, 22 h, 35° C., 22 hours
# [2] = test system: Escherichia coli MC4100 harboring the IMP4213 (E. coli IMP); assay: microbe, parasite or virus in culture; assay type: cell-based; details: Escherichia coli, 22 h, read-out: MIC (μg/mL) E. coli IMP, E. coli MC4100 IMP4213, increased outer-membrane permeability; 35° C., 22 hours
# Outline: (§1)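 CLSI broth microdilution in cation-adjusted Mueller Hinton Broth with 0.002% Tween-80; inoculum final OD600 0.0005, 22 hours at 35° C. Ten 2-fold dilutions starting at 4 μg/mL (protocol 2) or 0.5 μg/mL (protocol 3).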
# [3] = molecular target: T1, SpsB (Staphylococcus aureus signal peptidase) (Staphylococcus aureus, UniProt P0A070); assay: cell-based; assay type: biochemical; details: SpsB IC50, whole-cell S. aureus (USA300 background, overexpressing SpsB) as SpsB source; fluorogenic peptide substrate, kinetic read 30 min
# T1 construct: This assay uses a suspension of Staphylococcus aureus cells as a source of SpsB instead of recombinant SpsB protein; endogenous in cells; host or cells: S. aureus, USA300 background, overexpressing SpsB (whole-cell suspension from frozen pellets)
# Outline: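 Whole S. aureus cells (USA300, overexpressing SpsB) in PBS with MgCl2, CaCl2 and 0.1% Tween-80 served as enzyme source, mixed with 20 μM stock of (Dabcyl)βAla-KPAKAAE(Edans) substrate before use. Fluorescence (ex 340/em 490 nm) read kinetically over 30 min. IC50 from reaction rate versus 11-point inhibitor concentration.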
# [4] = test system: Methicillin Resistant Staphylococcus aureus strain USA 300, NRS384; assay: Minimum inhibitory concentration, broth micro-dilution (CLSI), S. aureus; assay type: cell-based; details: Staphylococcus aureus, MRSA / NRS 384 / USA300, 22 h, 35° C., 22 hours
# Outline: as §1
# [5] = E. coli ATCC 25922, read-out: MIC (μg/mL) E. coli
# [6] = MRSA USA 300 NRS384, read-out: MIC (μg/mL) S. aureus
# T1 sequence (P0A070 whole entry): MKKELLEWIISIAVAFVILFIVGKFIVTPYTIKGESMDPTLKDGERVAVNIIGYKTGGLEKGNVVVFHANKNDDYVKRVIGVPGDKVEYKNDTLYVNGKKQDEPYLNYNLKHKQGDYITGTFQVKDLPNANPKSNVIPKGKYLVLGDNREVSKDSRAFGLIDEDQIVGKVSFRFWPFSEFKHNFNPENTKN
Structure (SMILES),"MIC ([1]; read-out: MIC (μg/mL) E. coli, E. coli ATCC 25922)",MIC [2],pIC50 [3],"MIC ([4]; read-out: MIC (μg/mL) S. aureus, MRSA USA 300 NRS384)","MIC [1, 5]","MIC [4, 6]"
C[C@@H]1NC(=O)[C@@H](N(C)C(=O)[C@H](CCN)NC(=O)c2ccc(-c3ccc(Cl)cc3)cc2)c2ccc(OCCN)c(c2)-c2cc(ccc2OCCN)C[C@@H](C(=O)NCC#N)NC1=O [Compound 147],1.5 µg/mL,0.023 µg/mL,9.16,0.094 µg/mL,–,–
Cc1cc(-c2ccc(Cl)cc2)ccc1C(=O)N[C@@H](CCN)C(=O)N(C)[C@@H]1C(=O)N[C@@H](C)C(=O)N[C@H](C(=O)NCC#N)Cc2ccc(OCCN)c(c2)-c2cc1ccc2OCCN [Compound 148],–,0.0098 µg/mL,9.12,–,0.88 µg/mL,0.055 µg/mL
Cc1cc(-c2ccccc2)ccc1C(=O)N[C@@H](CCN)C(=O)N(C)[C@@H]1C(=O)N[C@@H](C)C(=O)N[C@H](C(=O)NCC#N)Cc2ccc(OCCN)c(c2)-c2cc1ccc2OCCN [Compound 149],–,0.023 µg/mL,9.10,–,3 µg/mL,0.19 µg/mL
Cc1cc(-c2ccccc2)ccc1C(=O)N[C@@H](CCCN)C(=O)N(C)[C@@H]1C(=O)N[C@@H](C)C(=O)N[C@H](C(=O)NCC#N)Cc2ccc(OCCN)c(c2)-c2cc1ccc2OCCN [Compound 150],–,0.063 µg/mL,9.09,–,4 µg/mL,0.25 µg/mL
CCc1ccc(-c2ccc(C(=O)N[C@@H](CCN)C(=O)N(C)[C@@H]3C(=O)N[C@@H](C)C(=O)N[C@H](C(=O)NCC#N)Cc4ccc(OCCN)c(c4)-c4cc3ccc4OCCN)c(C)c2)cc1 [Compound 151],–,0.012 µg/mL,9.23,–,0.31 µg/mL,0.031 µg/mL
CCc1ccc(-c2ncc(C(=O)N[C@@H](CCN)C(=O)N(C)[C@@H]3C(=O)N[C@@H](C)C(=O)N[C@H](C(=O)NCC#N)Cc4ccc(OCCN)c(c4)-c4cc3ccc4OCCN)c(C)n2)cc1 [Compound 155],–,0.0098 µg/mL,8.60,–,0.44 µg/mL,0.13 µg/mL
Cc1nc(-c2ccc(CC(C)C)cc2)ncc1C(=O)N[C@@H](CCN)C(=O)N(C)[C@@H]1C(=O)N[C@@H](C)C(=O)N[C@H](C(=O)NCC#N)Cc2ccc(OCCN)c(c2)-c2cc1ccc2OCCN [Compound 157],–,0.0034 µg/mL,9.10,–,0.098 µg/mL,0.023 µg/mL
CCCCCCc1ccc(-c2ncc(C(=O)N[C@@H](CCN)C(=O)N(C)[C@@H]3C(=O)N[C@@H](C)C(=O)N[C@H](C(=O)NCC#N)Cc4ccc(OCCN)c(c4)-c4cc3ccc4OCCN)c(C)n2)cc1 [Compound 159],–,< 0.0039 µg/mL,9.09,–,0.13 µg/mL,0.063 µg/mL
Cc1nc(-c2ccc(C(C)C)cc2)ncc1C(=O)N[C@@H](CCN)C(=O)N(C)[C@@H]1C(=O)N[C@@H](C)C(=O)N[C@H](C(=O)NCC#N)Cc2ccc(OCCN)c(c2)-c2cc1ccc2OCCN [Compound 160],–,0.0039 µg/mL,9.18,–,0.13 µg/mL,0.047 µg/mL
CCCCCc1ccc(-c2ncc(C(=O)N[C@@H](CCN)C(=O)N(C)[C@@H]3C(=O)N[C@@H](C)C(=O)N[C@H](C(=O)NCC#N)Cc4ccc(OCCN)c(c4)-c4cc3ccc4OCCN)c(C)n2)cc1 [Compound 162],–,0.0025 µg/mL,9.14,–,0.063 µg/mL,0.023 µg/mL
Cc1nc(-c2ccc(C(C)(C)C)cc2)ncc1C(=O)N[C@@H](CCN)C(=O)N(C)[C@@H]1C(=O)N[C@@H](C)C(=O)N[C@H](C(=O)NCC#N)Cc2ccc(OCCN)c(c2)-c2cc1ccc2OCCN [Compound 163],–,0.002 µg/mL,9.15,–,< 0.063 µg/mL,0.031 µg/mL
CCCCOc1ccc(-c2ncc(C(=O)N[C@@H](CCN)C(=O)N(C)[C@@H]3C(=O)N[C@@H](C)C(=O)N[C@H](C(=O)NCC#N)Cc4ccc(OCCN)c(c4)-c4cc3ccc4OCCN)c(C)n2)cc1 [Compound 164],–,0.0039 µg/mL,9.21,–,0.13 µg/mL,0.047 µg/mL
CCCc1ccc(-c2nc(C)c(C(=O)N[C@@H](CCN)C(=O)N(C)[C@@H]3C(=O)N[C@@H](C)C(=O)N[C@H](C(=O)NCC#N)Cc4ccc(OCCN)c(c4)-c4cc3ccc4OCCN)c(C)n2)cc1 [Compound 165],–,0.0039 µg/mL,9.21,–,0.19 µg/mL,0.047 µg/mL
